Results published in patent publication US4889861A, “Substituted imidazo[1,5-a]pyridine derivatives and other substituted bicyclic derivatives and their use as aromatase inhibitors” (Ciba-Geigy Corp., priority 1987, dated 1989).

How the values were obtained:
aromatase = test: in vivo inhibition of aromatase activity: suppression of ovarian estrogen content of PMS-hCG primed female rats; settings: Rattus norvegicus, po
Description: Twenty-one-day-old female rats are injected subcutaneously with 10 IU pregnant mare serum gonadotropin (PMS). Two days later the same rats are injected subcutaneously with 30 IU human chorionic gonadrotropin (hCG). On the day following the hCG treatment the rats are injected subcutaneously with either propylene glycol (0.2 ml:p.o.) or with various doses of the test compound. […] Four hours after the injection of androstenedione the rats are killed and their ovaries removed and trimmed free of adhering tissue and stored in pairs at -40° C. To determine the total estrogen content of the ovaries, 1.5 ml of 0.05M aqueous potassium phosphate buffer, pH 7.4, and 0.2 ml of 0.1N aqueous sodium hydroxide are added to the tissues which are then homogenized. The homogenate is extracted with 15 ml of diethyl ether, 5 ml aliquots are radioimmunoassayed with antiserum having 100% cross reactivity with estrone, estradiol and estriol. The results are expressed as ng estrogen/pair of ovaries.

thromboxane synthetase = target: T1, thromboxane synthetase (Homo sapiens, UniProt P24557); test: in vitro inhibition of the thromboxane synthetase enzyme (TxB2/PGF2 ratio); format: biochemical; settings: 30 min incubation
T1 construct: crude microsomal preparation of thromboxane synthetase from lysed hyman platelets; from tissue; host or cells: lysed human (printed 'hyman') platelets, crude microsomes
T1 sequence (P24557 1-533): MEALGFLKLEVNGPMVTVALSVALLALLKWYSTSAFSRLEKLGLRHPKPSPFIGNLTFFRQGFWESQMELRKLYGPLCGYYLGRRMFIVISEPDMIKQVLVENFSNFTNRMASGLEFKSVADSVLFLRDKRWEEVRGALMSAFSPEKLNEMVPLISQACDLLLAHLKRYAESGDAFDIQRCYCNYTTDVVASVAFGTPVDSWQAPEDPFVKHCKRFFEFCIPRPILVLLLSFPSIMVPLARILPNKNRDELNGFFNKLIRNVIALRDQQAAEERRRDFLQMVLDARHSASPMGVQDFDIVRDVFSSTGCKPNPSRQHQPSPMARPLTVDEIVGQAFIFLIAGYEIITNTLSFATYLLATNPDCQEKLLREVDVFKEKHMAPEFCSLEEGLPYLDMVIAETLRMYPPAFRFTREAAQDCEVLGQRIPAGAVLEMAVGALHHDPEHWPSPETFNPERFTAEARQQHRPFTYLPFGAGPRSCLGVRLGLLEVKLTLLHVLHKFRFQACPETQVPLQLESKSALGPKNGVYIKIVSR
Description: Res. Comm. 74, 1432 (1977); the testing procedure is as follows:
^14 C-arachidonic acid is incubated with an enzyme preparation consisting of solubilized and partially purified prostaglandin cyclo-oxygenase from sheep seminal vesicles and a crude microsomal preparation of thromboxane synthetase from lysed hyman platelets. The test compound (dissolved in buffer, or if necessary, in a small amount of ethanol) is added to the incubation medium. At the end of the incubation period (30 minutes), Prostaglandin E2 (PGE2) is reduced to a mixture of Prostaglandin F2 α and F2 β (PGF2 α+β) by addition of sodium borohydride. The radioactive products and excess substrate are extracted into ethyl acetate; the extract is evaporated to dryness; the residue is dissolved in acetone, spotted on thin-layer plates and chromatographed in the solvent system toluene: acetone: glacial acetic acid (100 volumes: 100 volumes: 3 volumes). The radioactive zones are located; those corresponding to Thromboxane B2 (T×B2) and PGF2 α+β are transferred to liquid scintillation vials and counted. The ratio of counts for T×B2 /PGF2 α+β is calculated for each concentration of test compound and IC50 values are determined graphically as the concentration of test compound at which the ratio of T×B2 /PGF2 α+β is reduced to 50% of the control value.

Row | IC50 (thromboxane synthetase) [nM] | Compound | minimal effective dose (aromatase) [mg/kg]
1 |  | N#Cc1ccc(-c2cccc3cncn23)cc1 [Example 3, 5-(p-Cyanophenyl)imidazo[1,5-a]pyridine] | 0.013
2 | ~900 | O=C(O)c1ccc(C2CCCc3cncn32)cc1 (stereo not drawn) [Example 9, 5-(p-Carboxyphenyl)-5,6,7,8-tetrahydroimidazo[1,5-a]-pyridine] | 
3 |  | CCOC(=O)CC1CCc2cncn2C1c1ccc(C#N)cc1 (stereo not drawn) [Example 33, 5-(4-cyanophenyl)-6-ethoxycarbonylmethyl-5,6,7,8-tetrahydroimidazo[1,5-a]pyridine] | 0.346
